# According to ChEMBL document CHEMBL3885881, “DrugMatrix”:
# Species: Rattus norvegicus
# Test: DrugMatrix - Regimen: Daily Repeat
# Format: toxicity, organism-based, Sprague-Dawley
# Parameters: regimen Daily Repeat, gender Male, age 6-8 weeks
# Conditions: in vivo, po, route oral GAVAGE, vehicle 100 % WATER; for ABSOLUTE BASOPHIL / ABSOLUTE EOSINOPHIL / ABSOLUTE LYMPHOCYTE / ABSOLUTE MONOCYTE / ABSOLUTE SEGMENTED NEUTROPHIL / BASOPHIL / EOSINOPHIL / ERYTHROCYTE COUNT / HEMATOCRIT / HEMOGLOBIN / LEUKOCYTE COUNT / LYMPHOCYTE / MEAN CORPUSCULAR HEMOGLOBIN / MEAN CORPUSCULAR HEMOGLOBIN CONCENTRATION / NEUTROPHIL / NUCLEATED RED BLOOD CELLS / PLATELET COUNT: tissue Blood; for ALANINE AMINOTRANSFERASE / ALBUMIN / ALKALINE PHOSPHATASE / ASPARTATE AMINOTRANSFERASE / BLOOD UREA NITROGEN / CARBON DIOXIDE / CHLORIDE / CHOLESTEROL / CREATINE PHOSPHOKINASE / CREATININE / GLUCOSE / LACTATE DEHYDROGENASE / LIPASE / PHOSPHORUS / POTASSIUM / SODIUM / TOTAL BILIRUBIN / TOTAL PROTEIN / URIC ACID: tissue Plasma
# [1] = 94 mg/kg, 120 h, dose level High, time 5 day
# [2] = […], 72 h, dose 2.3 mg/Kg, dose level Low, time 3 day
# [3] = […], 120 h, dose 2.3 mg/Kg, dose level Low, time 5 day
structure (smiles),measurement,setting,value
CN1[C@@H]2CC[C@H]1C[C@@H](OC(=O)C(CO)c1ccccc1)C2 (stereo partly drawn) [ATROPINE],ABSOLUTE BASOPHIL,[1],0 CELLS/uL
same,ABSOLUTE EOSINOPHIL,[1],26.33 CELLS/uL
same,ABSOLUTE LYMPHOCYTE,[1],8136 CELLS/uL
same,ABSOLUTE MONOCYTE,[1],82.33 CELLS/uL
same,ABSOLUTE SEGMENTED NEUTROPHIL,[1],555.33 CELLS/uL
same,BASOPHIL,[1],0%
same,EOSINOPHIL,[1],0.33%
same,ERYTHROCYTE COUNT,[1],5.33 x10E6/uL
same,HEMATOCRIT,[1],35.2%
same,HEMOGLOBIN,[1],13.4 G/DL
same,LEUKOCYTE COUNT,[1],8.8 x10E3/uL
same,LYMPHOCYTE,[1],92.33%
same,MEAN CORPUSCULAR HEMOGLOBIN,[1],25.13 pg
same,MEAN CORPUSCULAR HEMOGLOBIN CONCENTRATION,[1],38.07 G/DL
same,NEUTROPHIL,[1],6.33%
same,NUCLEATED RED BLOOD CELLS,[1],0.33 /100WBC
same,PLATELET COUNT,[1],1133.67 x10E3/uL
same,ALANINE AMINOTRANSFERASE,[1],73.67 u/L
same,ALBUMIN,[1],4.13 G/DL
same,ALKALINE PHOSPHATASE,[1],335 u/L
same,ASPARTATE AMINOTRANSFERASE,[1],106.67 u/L
same,BLOOD UREA NITROGEN,[1],13 mg/dL
same,CARBON DIOXIDE,[1],32 mmol/L
same,CHLORIDE,[1],99.67 MEQ/L
same,CHOLESTEROL,[1],52.33 mg/dL
same,CREATINE PHOSPHOKINASE,[1],367.67 u/L
same,CREATININE,[1],0.1 mg/dL
same,GLUCOSE,[1],155 mg/dL
same,LACTATE DEHYDROGENASE,[1],214.33 u/L
same,LIPASE,[1],11 u/L
same,PHOSPHORUS,[1],9.67 mg/dL
same,POTASSIUM,[1],5.56 MEQ/L
same,SODIUM,[1],143.2 MEQ/L
same,TOTAL BILIRUBIN,[1],0.17 mg/dL
same,TOTAL PROTEIN,[1],6.03 G/DL
same,URIC ACID,[1],0.37 mg/dL
same,ABSOLUTE BASOPHIL,[2],0 CELLS/uL
same,ABSOLUTE EOSINOPHIL,[2],0 CELLS/uL
same,ABSOLUTE LYMPHOCYTE,[2],12169.33 CELLS/uL
same,ABSOLUTE MONOCYTE,[2],203.67 CELLS/uL
same,ABSOLUTE SEGMENTED NEUTROPHIL,[2],1660.33 CELLS/uL
same,BASOPHIL,[2],0%
same,EOSINOPHIL,[2],0%
same,ERYTHROCYTE COUNT,[2],5.43 x10E6/uL
same,HEMATOCRIT,[2],34.63%
same,HEMOGLOBIN,[2],13.57 G/DL
same,LEUKOCYTE COUNT,[2],14.03 x10E3/uL
same,LYMPHOCYTE,[2],88%
same,MEAN CORPUSCULAR HEMOGLOBIN,[2],25 pg
same,MEAN CORPUSCULAR HEMOGLOBIN CONCENTRATION,[2],39.17 G/DL
same,NEUTROPHIL,[2],10.67%
same,NUCLEATED RED BLOOD CELLS,[2],0 /100WBC
same,PLATELET COUNT,[2],1077.33 x10E3/uL
same,ALANINE AMINOTRANSFERASE,[2],49 u/L
same,ALBUMIN,[2],3.93 G/DL
same,ALKALINE PHOSPHATASE,[2],305.33 u/L
same,ASPARTATE AMINOTRANSFERASE,[2],82.67 u/L
same,BLOOD UREA NITROGEN,[2],10.67 mg/dL
same,CARBON DIOXIDE,[2],28.67 mmol/L
same,CHLORIDE,[2],99.33 MEQ/L
same,CHOLESTEROL,[2],68.67 mg/dL
same,CREATINE PHOSPHOKINASE,[2],256.67 u/L
same,CREATININE,[2],0.1 mg/dL
same,GLUCOSE,[2],142.67 mg/dL
same,LACTATE DEHYDROGENASE,[2],161 u/L
same,LIPASE,[2],9.33 u/L
same,PHOSPHORUS,[2],10.27 mg/dL
same,POTASSIUM,[2],6.48 MEQ/L
same,SODIUM,[2],141.6 MEQ/L
same,TOTAL BILIRUBIN,[2],0.27 mg/dL
same,TOTAL PROTEIN,[2],5.63 G/DL
same,URIC ACID,[2],0.97 mg/dL
same,ABSOLUTE BASOPHIL,[3],0 CELLS/uL
same,ABSOLUTE EOSINOPHIL,[3],0 CELLS/uL
same,ABSOLUTE LYMPHOCYTE,[3],8930.67 CELLS/uL
same,ABSOLUTE MONOCYTE,[3],135.33 CELLS/uL
same,ABSOLUTE SEGMENTED NEUTROPHIL,[3],600.67 CELLS/uL
same,BASOPHIL,[3],0%
same,EOSINOPHIL,[3],0%
same,ERYTHROCYTE COUNT,[3],5.39 x10E6/uL
same,HEMATOCRIT,[3],35.13%
same,HEMOGLOBIN,[3],13.5 G/DL
same,LEUKOCYTE COUNT,[3],9.67 x10E3/uL
same,LYMPHOCYTE,[3],93%
same,MEAN CORPUSCULAR HEMOGLOBIN,[3],25.07 pg
same,MEAN CORPUSCULAR HEMOGLOBIN CONCENTRATION,[3],38.43 G/DL
same,NEUTROPHIL,[3],6%
same,NUCLEATED RED BLOOD CELLS,[3],0 /100WBC
same,PLATELET COUNT,[3],1298.67 x10E3/uL
same,ALANINE AMINOTRANSFERASE,[3],55.33 u/L
same,ALBUMIN,[3],4.07 G/DL
same,ALKALINE PHOSPHATASE,[3],274 u/L
same,ASPARTATE AMINOTRANSFERASE,[3],83 u/L
same,BLOOD UREA NITROGEN,[3],13.67 mg/dL
same,CARBON DIOXIDE,[3],34.67 mmol/L
same,CHLORIDE,[3],98.33 MEQ/L
same,CHOLESTEROL,[3],64.67 mg/dL
same,CREATINE PHOSPHOKINASE,[3],318.67 u/L
same,CREATININE,[3],0.12 mg/dL
same,GLUCOSE,[3],137.67 mg/dL
same,LACTATE DEHYDROGENASE,[3],169.67 u/L
same,LIPASE,[3],12.33 u/L
same,PHOSPHORUS,[3],10 mg/dL
same,POTASSIUM,[3],5.77 MEQ/L
same,SODIUM,[3],144.13 MEQ/L
same,TOTAL BILIRUBIN,[3],0.2 mg/dL
same,TOTAL PROTEIN,[3],6.23 G/DL
same,URIC ACID,[3],0.37 mg/dL
